Reference: patent publication US12258344B2, “Azaaromatic amide derivatives for the treatment of cancer” (SHENZHEN FORWARD PHARMACEUTICALS CO., LTD., priority 2019, dated 2025)
Structures can show the parent of a compound that is named as a salt. Where two headings read alike, the source gives them in different places.

How the values were obtained:
Format in all cases: cell-based
BaF3 (EGFR/D770insSVD) = target: T1, BaF3 (EGFR/D770insSVD) (Homo sapiens, UniProt P00533, DUP768-770, cells depend on it); test: Test 13: EGFR exon 20 inserted D770insSVD cell proliferation test; settings: BaF3 (EGFR/D770insSVD), 72 hours, Cell Titer-Glo, read-out: Test 13 IC50
T1 construct: Test 13 IC50 (nM); other: BaF3 (EGFR/D770insSVD), 72 hours, Cell Titer-Glo
Procedure: Test 13: EGFR Exon 20 Inserted D770insSVD Cell Proliferation Test
(§1) The number of viable cells in the culture was measured according to the protocol described in Promega's Cell Titer-Glo Luminescent cell Viability Assay (Promega catalog number #G7570). 90 μl of cells (3,000 cells/well) were cultured in growth medium in a Corning black transparent bottom 96-well plate, and cultured in a 5% CO2 humidified incubator at 37° C. overnight. The compound serially diluted in 100% DMSO was added to the cells using a pipette, and the cells were incubated for another 72 hours. 100 μl of the mixed Cell Titer-Glo reagent was added to the cells in the 96-well culture plate to lyse the cells and mix gently. Subsequently, the […] was detected on the Envision microplate detector to obtain the data of each compound. Finally, the data was input into a suitable software package (such as Prism) for curve fitting analysis.

BaF3 (EGFR/V769insASV) = BaF3 (EGFR/V769insASV) (Homo sapiens, UniProt P00533, DUP767-769, cells depend on it); test: Test 15: EGFR exon 20 inserted V769insASV cell proliferation test; settings: 72 hours, Cell Titer-Glo, read-out: Test 15 IC50
Procedure: Test 15: EGFR Exon 20 Inserted V769insASV Cell Proliferation Test
as §1, with “(3000” for “(3,000”

BaF3 (EGFR/A763insFQEA) = BaF3 (EGFR/A763insFQEA) (Homo sapiens, UniProt P00533, INS763FQEA, cells depend on it); test: Test 14: EGFR exon 20 inserted A763insFQEA cell proliferation test; settings: 72 hours, Cell Titer-Glo, read-out: Test 14 IC50
Procedure: Test 14: EGFR Exon 20 Inserted A763insFQEA Cell Proliferation Test
as §1

[1] = system: NCI-H1975 (EGFR L858R/T790M double mutant); test: Test 1: EGFR L858R/T790M (EGFR double mutant) cell proliferation test; settings: Homo sapiens; NCI-H1975 cells, 72 hours, Cell Titer-Glo
Procedure: Test 1: EGFR L858R/T790M (EGFR Double Mutant) Cell Proliferation Test
The human lung cell line NCI-H1975 (EGFR L858R/T790M double mutant) was obtained from the American Type Culture Collection. NCI-H1975 cells were cultured in RPMI1640 medium containing 10% fetal bovine serum and 2 mM glutamine. The cells were grown at 37° C. in a humidified incubator with 5% CO2.
as §1, with “(8,000” for “(3,000”

Sequence of BaF3 (EGFR/A763insFQEA) (P00533 with tags, fused parts or gaps INS763FQEA): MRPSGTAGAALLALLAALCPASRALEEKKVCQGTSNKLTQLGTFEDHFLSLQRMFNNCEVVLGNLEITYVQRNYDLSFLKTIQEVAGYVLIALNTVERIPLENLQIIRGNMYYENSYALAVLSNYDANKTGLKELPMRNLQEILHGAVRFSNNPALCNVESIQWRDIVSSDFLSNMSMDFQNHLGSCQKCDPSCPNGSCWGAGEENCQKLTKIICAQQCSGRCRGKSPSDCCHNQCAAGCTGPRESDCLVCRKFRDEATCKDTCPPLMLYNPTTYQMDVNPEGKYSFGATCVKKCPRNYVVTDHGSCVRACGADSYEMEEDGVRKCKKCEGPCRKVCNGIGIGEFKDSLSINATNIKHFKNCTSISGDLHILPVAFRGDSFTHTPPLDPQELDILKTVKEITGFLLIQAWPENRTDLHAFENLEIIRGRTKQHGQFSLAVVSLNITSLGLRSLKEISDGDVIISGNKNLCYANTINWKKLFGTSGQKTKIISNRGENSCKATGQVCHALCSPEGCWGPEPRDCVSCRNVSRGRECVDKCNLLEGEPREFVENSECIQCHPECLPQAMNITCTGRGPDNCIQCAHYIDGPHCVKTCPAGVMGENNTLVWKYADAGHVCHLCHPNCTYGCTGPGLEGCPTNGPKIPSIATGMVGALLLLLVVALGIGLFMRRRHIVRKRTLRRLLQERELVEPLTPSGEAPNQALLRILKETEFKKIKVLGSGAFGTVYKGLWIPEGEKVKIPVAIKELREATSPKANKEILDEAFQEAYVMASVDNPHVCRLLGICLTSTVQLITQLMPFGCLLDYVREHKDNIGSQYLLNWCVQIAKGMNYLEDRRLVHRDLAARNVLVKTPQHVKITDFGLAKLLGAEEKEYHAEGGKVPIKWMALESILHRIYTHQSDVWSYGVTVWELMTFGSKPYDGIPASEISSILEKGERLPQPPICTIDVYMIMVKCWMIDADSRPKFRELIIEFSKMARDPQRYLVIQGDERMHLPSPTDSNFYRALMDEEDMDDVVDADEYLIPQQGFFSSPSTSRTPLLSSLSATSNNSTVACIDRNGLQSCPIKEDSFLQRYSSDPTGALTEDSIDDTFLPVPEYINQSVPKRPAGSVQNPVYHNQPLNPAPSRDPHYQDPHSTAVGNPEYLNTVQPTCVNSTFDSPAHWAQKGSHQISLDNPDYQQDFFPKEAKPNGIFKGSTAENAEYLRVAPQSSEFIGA
Sequence of BaF3 (EGFR/V769insASV) (P00533 with tags, fused parts or gaps DUP767-769): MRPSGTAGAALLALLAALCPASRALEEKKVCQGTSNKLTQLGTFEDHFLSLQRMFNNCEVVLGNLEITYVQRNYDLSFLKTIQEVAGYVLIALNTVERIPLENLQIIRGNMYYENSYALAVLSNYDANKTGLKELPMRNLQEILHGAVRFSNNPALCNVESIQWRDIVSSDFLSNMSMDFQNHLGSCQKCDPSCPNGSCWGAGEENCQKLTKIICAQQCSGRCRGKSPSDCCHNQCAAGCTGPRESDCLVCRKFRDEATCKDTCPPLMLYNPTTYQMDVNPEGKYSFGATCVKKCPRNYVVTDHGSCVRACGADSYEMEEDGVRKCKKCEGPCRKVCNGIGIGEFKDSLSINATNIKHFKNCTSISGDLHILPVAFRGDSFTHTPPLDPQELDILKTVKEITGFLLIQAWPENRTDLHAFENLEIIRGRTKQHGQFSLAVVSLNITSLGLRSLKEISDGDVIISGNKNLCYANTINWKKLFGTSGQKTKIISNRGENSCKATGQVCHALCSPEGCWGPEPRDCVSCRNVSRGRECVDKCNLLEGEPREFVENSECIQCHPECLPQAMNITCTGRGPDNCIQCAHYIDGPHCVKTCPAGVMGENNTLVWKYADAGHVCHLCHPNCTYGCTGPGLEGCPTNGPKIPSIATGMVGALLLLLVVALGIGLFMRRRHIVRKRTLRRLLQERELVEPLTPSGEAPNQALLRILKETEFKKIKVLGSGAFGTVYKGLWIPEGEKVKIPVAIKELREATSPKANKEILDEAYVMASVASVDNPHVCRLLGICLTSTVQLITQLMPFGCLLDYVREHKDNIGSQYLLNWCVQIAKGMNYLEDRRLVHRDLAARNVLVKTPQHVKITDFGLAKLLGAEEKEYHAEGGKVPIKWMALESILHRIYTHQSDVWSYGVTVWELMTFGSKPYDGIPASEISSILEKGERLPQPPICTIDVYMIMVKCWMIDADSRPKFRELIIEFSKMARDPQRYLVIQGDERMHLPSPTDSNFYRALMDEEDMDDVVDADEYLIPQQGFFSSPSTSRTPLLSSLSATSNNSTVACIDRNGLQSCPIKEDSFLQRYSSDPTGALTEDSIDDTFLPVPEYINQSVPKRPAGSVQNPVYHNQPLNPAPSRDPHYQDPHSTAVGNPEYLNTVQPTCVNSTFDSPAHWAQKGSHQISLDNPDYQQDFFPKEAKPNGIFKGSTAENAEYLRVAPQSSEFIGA
T1 sequence (P00533 with tags, fused parts or gaps DUP768-770): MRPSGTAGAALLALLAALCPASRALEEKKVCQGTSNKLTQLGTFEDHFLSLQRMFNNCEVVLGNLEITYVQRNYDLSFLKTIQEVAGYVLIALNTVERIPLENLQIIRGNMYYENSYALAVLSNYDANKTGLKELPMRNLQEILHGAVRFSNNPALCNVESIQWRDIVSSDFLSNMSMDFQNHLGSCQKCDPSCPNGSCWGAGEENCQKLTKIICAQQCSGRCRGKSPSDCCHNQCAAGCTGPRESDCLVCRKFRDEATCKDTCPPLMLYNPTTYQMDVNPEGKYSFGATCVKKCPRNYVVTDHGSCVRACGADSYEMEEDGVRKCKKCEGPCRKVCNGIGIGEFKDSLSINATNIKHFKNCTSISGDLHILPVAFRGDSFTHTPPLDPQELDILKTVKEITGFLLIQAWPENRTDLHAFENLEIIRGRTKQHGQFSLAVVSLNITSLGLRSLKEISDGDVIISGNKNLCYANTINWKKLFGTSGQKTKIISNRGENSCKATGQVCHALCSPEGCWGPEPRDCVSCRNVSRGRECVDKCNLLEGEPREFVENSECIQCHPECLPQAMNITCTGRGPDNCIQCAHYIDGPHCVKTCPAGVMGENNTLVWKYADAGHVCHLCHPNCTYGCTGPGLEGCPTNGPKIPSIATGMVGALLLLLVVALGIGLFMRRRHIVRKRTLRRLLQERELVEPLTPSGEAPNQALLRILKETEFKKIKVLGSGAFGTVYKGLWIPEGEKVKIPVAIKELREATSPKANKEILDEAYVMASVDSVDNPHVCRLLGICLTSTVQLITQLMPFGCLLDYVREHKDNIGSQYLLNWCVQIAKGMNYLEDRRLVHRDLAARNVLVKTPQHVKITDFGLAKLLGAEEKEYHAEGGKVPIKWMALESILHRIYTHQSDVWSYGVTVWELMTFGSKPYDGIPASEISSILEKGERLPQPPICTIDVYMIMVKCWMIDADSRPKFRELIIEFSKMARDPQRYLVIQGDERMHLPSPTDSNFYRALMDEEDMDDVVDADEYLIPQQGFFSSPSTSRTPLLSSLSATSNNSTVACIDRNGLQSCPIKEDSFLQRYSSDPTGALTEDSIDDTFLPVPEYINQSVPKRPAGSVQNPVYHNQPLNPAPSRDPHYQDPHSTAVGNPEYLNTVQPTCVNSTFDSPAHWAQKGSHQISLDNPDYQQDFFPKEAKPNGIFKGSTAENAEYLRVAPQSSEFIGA

Compound | GI50 (BaF3 (EGFR/D770insSVD)) [nM] | GI50 (BaF3 (EGFR/V769insASV)) [nM] | GI50 (BaF3 (EGFR/A763insFQEA)) [nM] | GI50 (BaF3 (EGFR/D770insSVD); hydrochloride) [nM] | GI50 (BaF3 (EGFR/V769insASV); hydrochloride) [nM] | GI50 (BaF3 (EGFR/A763insFQEA); hydrochloride) [nM] | IC50 [1] [nM]
C=CC(=O)Nc1cc(Nc2ncnc(-c3cnc4c(C)cccn34)n2)c(OC)cc1N(C)CCN(C)C [Compound 19, N-(2-((2-(dimethylamino)ethyl)(methyl)amino)-4-methoxy-5-((4-(8-methylimidazole[1,2-a]pyridin-3-yl)-1,3,5-triazin-2-yl)amino)phenyl)acrylamide] | 144 | 148 | 42.6 |  |  |  | 
C=CC(=O)Nc1cc(Nc2nccc(-c3cn(C)c4ccc(F)cc34)n2)c(OC(F)F)cc1N(C)CCNC [Compound 20, N-(4-(difluoromethoxy)-5-((4-(5-fluoro-1-methyl-1H-indol-3-yl)pyrimidin-2-yl)amino)-2-(methyl(2-(methylamino)ethyl)amino)phenyl)acrylamide] | 89.2 | 155 | 75.1 |  |  |  | 
C=CC(=O)Nc1cc(Nc2nccc(-c3cn(C)c4ccc(F)cc34)n2)c(OC)cc1N(C)CCN(C)C [Compound 21, N-(2-((2-(dimethylamino)ethyl)(methyl)amino)-5-((4-(5-fluoro-1-methyl-1H-indol-3-yl)pyrimidin-2-yl)amino)-4-methoxyphenyl)acrylamide] | 81 | 98.6 | 50.1 |  |  |  | 
C=CC(=O)Nc1cc(Nc2nccc(-c3cn(C)c4ccc(F)cc34)n2)c(OCC)cc1N(C)CCN(C)C [Compound 22, N-(2-((2-(dimethylamino)ethyl)(methyl)amino)-4-ethoxy-5-((4-(5-fluoro-1-methyl-1H-indol-3-yl)pyrimidin-2-yl)amino)phenyl)acrylamide] | 248 | 365 | 193 |  |  |  | 
C=CC(=O)Nc1cc(Nc2nccc(-c3cn(C)c4ccccc34)n2)c(OCC)cc1N(C)CCN(C)C [Compound 23, N-(2-((2-(dimethylamino)ethyl)(methyl)amino)-4-ethoxy-5-((4-(1-methyl-1H-indole-3-yl)pyrimidin-2-yl)amino)phenyl)acrylamide] | 219 | 264 | 122 |  |  |  | 
C=CC(=O)Nc1cc(Nc2nccc(-c3cn(C)c4ccccc34)n2)c(OCC)cc1N(C)CCNC [Compound 24, N-(4-ethoxy-2-(methyl(2-(methylamino)ethyl)amino)-5-((4-(1-methyl-1H-indol-3-yl)pyrimidine-2-yl)amino)phenyl)acrylamide] | 207 | 266 | 213 |  |  |  | 
C=CC(=O)Nc1cc(Nc2nccc(-c3cn(C)c4ccc(F)cc34)n2)c(OC)cc1N(C)CCNC [Compound 25, N-(5-((4-(5-fluoro-1-methyl-1H-indol-3-yl)pyrimidin-2-yl)amino)-4-methoxy-2-(methyl(2-(methylamino)ethyl)amino)phenyl)acrylamide] | 78.9 | 104 | 51 |  |  |  | 
C=CC(=O)Nc1cc(Nc2nccc(-c3cn(C)c4ccccc34)n2)c(OC(F)F)cc1N(C)CCNC [Compound 26, N-(4-(difluoromethoxy)-2-(methyl(2-(methylamino)ethyl)amino)-5-((4-(1-methyl-1H-indole-3-yl)pyrimidin-2-yl)amino)phenyl)acrylamide] | 142 | 126 | 38.3 |  |  |  | 
C=CC(=O)Nc1cc(Nc2nccc(-c3cn(C)c4ccc(F)cc34)n2)c(OCC)cc1N(C)CCNC [Compound 27, N-(4-ethoxy-5-((4-(5-fluoro-1-methyl-1H-indol-3-yl)pyrimidin-2-yl)amino)-2-(methyl(2-(methylamino)ethyl)amino)phenyl)acrylamide] | 195 | 319 | 177 |  |  |  | 
C=CC(=O)Nc1cc(Nc2nccc(-c3cn(C4CC4)c4ccccc34)n2)c(OC)cc1N(C)CCN(C)C [Compound 28, N-(5-((4-(1-cyclopropyl-1H-indole)pyrimidin-2-yl)-2-((2-(dimethylamino)ethyl(methyl)amine)-4-methoxyphenyl)acrylamide hydrochloride] |  |  |  | 237 | 176 | 66.4 | 
C=CC(=O)Nc1cc(Nc2nccc(-c3cn(C4CC4)c4ccccc34)n2)c(OC)cc1N(C)CCN(C)C [Compound 29, N-(5-((4-(1-cyclopropyl-1H-indole)pyrimidin-2-yl)-2-((2-(dimethylamino)ethyl(methyl)amine)-4-methoxyphenyl)acrylamide methanesulfonate] | 240 | 174 | 60.7 |  |  |  | 
C=CC(=O)Nc1cc(Nc2nccc(-c3cn(C4CC4)c4ccccc34)n2)c(OC)cc1N(C)CCN(C)C [Compound 30] | 239 | 177 | 63.6 |  |  |  | 
C=CC(=O)Nc1cc(Nc2nccc(-n3cc(CN(C)C)c(-c4ccccc4)n3)n2)c(OC)cc1N1CCOCC1 [Compound 34, N-(5-((4-(4-((dimethylamine)methyl)-3-phenyl-1H-pyrazol-1-yl)pyrimidin-2-yl)amine)-4-methoxy-2-morpholinylphenyl)acrylamide] | 598 | 406 | 53.8 |  |  |  | 
C=CC(=O)Nc1cccc(Oc2nc(Nc3ccc(N4CCN(C)CC4)c(F)c3)nc3[nH]ccc23)c1 [Compound 35, N-(3-((2-((3-fluoro-4-(4-methylpiperazin-1-yl)phenyl)amine)-7H-pyrazole[2,3-d]pyrimidine-4-yl)oxo)phenyl)acrylamide] | 146 | 105 | 106 |  |  |  | 
C=CC(=O)Nc1cccc(Oc2nc(Nc3ccc(N4CCN(C)CC4)cc3)nc3ccsc23)c1 [Compound 36, N-(3-((2-((4-(4-methylpiperazin-1-yl)phenyl)amine)thieno[3,2-d]pyrimidin-4-yl)oxo)phenyl)acrylamide] | 454 | 325 | 170 |  |  |  | 
COc1cc2ncnc(Nc3cccc(Cl)c3F)c2cc1OC(=O)N1CCN(C)C[C@H]1C [Compound 38] | > 3330 | > 3330 | 71.2 |  |  |  | 
Cc1cc(C(=O)Nc2nc3cccc(Cl)c3n2[C@@H]2CCCCN(C(=O)/C=C/CN(C)C)C2)ccn1 [Compound 39, (R,E)-N-(7-chloro-1-(1-(4-(dimethylamine)-2-butenoyl)azepane-3-yl)-1H-benzo[d]imidazol-2-yl)-2-methylisonicotinamide] | 963 | 455 | 309 |  |  |  | 
COc1cc(N2CC[C@@H]2CN(C)C)c(NC(=O)/C=C/CN(C)C)cc1Nc1ncnc(-n2ccc3cnccc32)n1 [Example 2, (R,E)-N-(5-((4-(1H-pyrrole[3,2-c]pyridin-1-yl)-1,3,5-triazin-2-yl)amino)-2-(2-((dimethylamino)methyl)azetidine-1-yl)-4-methoxyphenyl)-4-(dimethylamino)butene-2-amide] |  |  |  |  |  |  | 130
C=CC(=O)Nc1cc(Nc2ncnc(-n3nc(F)c4ccccc43)n2)c(OC)cc1N(C)CCN(C)C [Example 3, N-(2-((2-(dimethylamino)ethyl)(methyl)amino)-5-((4-(3-fluoro-1H-indazol-1-yl)-1,3,5-triazin-2-yl)amino)-4-methoxyphenyl)acrylamide] |  |  |  |  |  |  | 57
C=CC(=O)Nc1cc(Nc2nccc(-n3nc(F)c4ccccc43)n2)c(OC)cc1N(C)CCN(C)C [Example 7] |  |  |  |  |  |  | 57
